Patent US20230210819A1, “USE OF BENZISOSELAZOLE DERIVATIVE FOR ANTI-CORONAVIRUS AND CONTROL OF INTERSTITIAL LUNG DISEASE (ILD) RELATED TO CORONAVIRUS” (SHANGHAI YUANXI MEDICINE CORP., priority 2020, published 2023)

Key:
Assay type in all cases: in vivo, C57 mice
[1] = tested on: cytokines in bronchoalveolar lavage fluid; test: Inflammatory factor assay of bronchoalveolar lavage fluid by ELISA; details: Dex 1-1.5 mg/kg i.p. every two days
Protocol: (§1) Animals of 7-d modeling were randomly divided into 7 groups according to the table below, 6 animals per control group and 12 animals per test group.
(§2) Drug administration began 24 h or 7 d after modeling. […] The day of the first administration was counted as D1, the next day as D2, and so forth. The normal groups and Model groups were given 200 µL of normal saline daily by gavage administration.
After the mouse was fixed, its trachea and chest cavity were exposed, and the trachea and the esophagus were bluntly separated with an ophthalmic curved forceps. Two sutures were made between the trachea and the esophagus. An intravenous trocar was inserted into the trachea and ligated at the site where it entered the trachea and at its distal end. A 1 mL syringe was connected to draw in 1 mL of pre-cooled PBS and infuse it into the lung tissue. Significant filling in the lung could be seen with the naked eye. The infusion was stopped for 10 s and withdrawal was performed. The infusion/withdrawal cycle was repeated 3 times. The withdrawn BALF was transferred to a clean EP tube and centrifuged at 4° C., and the supernatant was collected and preserved at -80° C. The bronchoalveolar lavage fluid was assayed for inflammatory factors by ELISA.

[2] = tested on: bleomycin-induced mouse lung disease model; test: Blood gas analysis, 7-d modeling; details: Dex 1-1.5 mg/kg i.p. every two days, arterial blood after administration ended
Protocol: as §1, §2
(§3) 1. After being anaesthetized, a mouse was fixed to a board in a supine position.
(§4) 2. After the skin was disinfected with alcohol, a midline cut of about 1.5 cm was made downward in the skin of the neck. The connective tissue between the sternohyoid muscle and the stemothyroid muscle was separated along the anterior border of the sternomastoid muscle with a tissue forceps. The pulsating common carotid artery could be seen on the deep right side of the trachea. A common carotid artery of about 1.5 cm in length was separated. The distal end was ligated with silk thread, and the proximal end was clipped with an artery clip and threaded with a silk thread for later use. The mouse board was placed under a dissecting microscope, and a V-shaped centripetal incision was gently made in a site near the distal end of the artery with a microscopy scissor. A PE microcatheter was inserted into the artery and fixed by making a knot with silk thread. The artery clip was removed, and 0.1-0.2 mL of blood was collected with a 1 mL syringe. The proximal end was clipped with an artery clip, and the syringe was removed. The blood was immediately analyzed on an AbboTTi-STAT blood gas microanalyzer.
(§5) In a blood gas analysis, the H^+ concentration in the blood and gases (mainly CO2 and O2) dissolved in the blood can be determined to directly reflect the function of pulmonary ventilation and the acid-base balance state. They are used to determine in the organism whether the acid-base balance is upset, whether anoxia occurred, the level of anoxia, and so forth.

[3] = tested on: bleomycin-induced mouse lung disease model; test: Lung and spleen coefficients, 7-d modeling; details: Dex 1-1.5 mg/kg i.p. every two days
Protocol: as §1, §2
Method: after being euthanized, the animals were dissected, and the heart, liver, spleen, lung and kidney were weighed.
(§6) In this experiment, 105 C57 mice were randomly selected and subjected to organ drip administration of a single dose of bleomycin at 2.5 mg/kg for 24 h or 7 d for induction. After 7 days of induction, 3 model mice were randomly selected and dissected to determine whether the modeling was successful. After modeling, the survival of the mice was recorded. The living states of the mice were observed and their body weight was measured at a fixed time.
A normal control group comprised 6 mice.

[4] = tested on: bleomycin-induced mouse lung disease model; test: Blood gas analysis, 24-h modeling; details: Dex 1-1.5 mg/kg i.p. every two days, arterial blood after administration ended
Protocol: (§7) Animals of 24-h modeling were randomly divided into 5 groups according to the table below, 3 animals per control group and 5 animals per test group.
as §2, §3, §4, §5

[5] = Body weight, bleomycin-induced mice, 24-h modeling; details: Dex 1-1.5 mg/kg i.p. every two days
Protocol: as §7, §2
All the animals were observed once daily during the experiment for death or dying, feces, ingestion, mental state and behavior and activity. Abnormalities were recorded in time. All the animals were weighed once before grouping and once before each dose.
as §6
A normal control group comprised 3 mice.

[6] = second half of table, head taken from the 24th table

Structure (SMILES): C[C@@H]1C[C@H]2[C@@H]3CCC4=CC(=O)C=C[C@]4(C)[C@@]3(F)[C@@H](O)C[C@]2(C)[C@@]1(O)C(=O)CO [Dex, dexamethasone, reference compound]
- IFN-γ in bronchoalveolar lavage fluid [1]: 66.48 ± 4.88 pg/mL
- NF-κB in bronchoalveolar lavage fluid [1]: 818.72 ± 119.21 pg/mL
- PPAR-γ in bronchoalveolar lavage fluid [1]: 232.49 ± 39.00 pg/mL
- Percent reduction in IL-1β in bronchoalveolar lavage fluid with respect to the Model group [1]: 23.21%
- Percent reduction in IL-2 in bronchoalveolar lavage fluid with respect to the Model group [1]: 7.98%
- Percent reduction in IL-6 in bronchoalveolar lavage fluid with respect to the Model group [1]: 55.36%
- Percent reduction in NF-κB in bronchoalveolar lavage fluid with respect to the Model group [1]: 10.75%
- Percent reduction in TGF-β in bronchoalveolar lavage fluid with respect to the Model group [1]: 15.87%
- Percent reduction in TNF-α in bronchoalveolar lavage fluid with respect to the Model group [1]: 5.19%
- TGF-β in bronchoalveolar lavage fluid [1]: 159.28 ± 11.09 pg/mL
- Percent reduction in IFN-γ in bronchoalveolar lavage fluid with respect to the Model group ([1]; negative = increase): -100.30%
- Percent reduction in PPAR-y in bronchoalveolar lavage fluid with respect to the Model group ([1]; negative = increase): -7.09%
- IL-1β in bronchoalveolar lavage fluid [1, 6]: 9.59 ± 0.90 pg/mL
- IL-2 in bronchoalveolar lavage fluid [1, 6]: 41.67 ± 4.69 pg/mL
- IL-6 in bronchoalveolar lavage fluid [1, 6]: 12.84 ± 1.02 pg/mL
- TNF-α in bronchoalveolar lavage fluid [1, 6]: 53.21 ± 0.90 pg/mL
- BEect [2]: -8.50 ± 1.05 mmol/L
- HCO3^- [2]: 27.82 ± 1.08 mmol/L
- PCO2 [2]: 33.60±1.92 mmHg
- Lung coefficient [3]: 0.96±0.08%
- Spleen coefficient [3]: 0.43±0.04%
- BEect [4]: -9.20 ± 1.30 mmol/L
- HCO3^- [4]: 28.28 ± 1.56 mmol/L
- PCO2 [4]: 32.52±2.73 mmHg
- Body weight ([5]; D1): 19.92 ± 1.38 g
- Body weight ([5]; D7): 20.02 ± 0.96 g
- Body weight ([5]; D14): 19.24 ± 0.95 g
- Body weight ([5]; D21): 18.90 ± 0.78 g
- Body weight ([5]; D28): 18.56 ± 0.71 g
- Body weight ([5]; D35): 18.36 ± 0.66 g
- Body weight decreased by ([5]; day 1 to day 35): 8.48%
